# Assay results reported in ChEMBL document CHEMBL4431378, “Small Molecule Antagonists of the Nuclear Androgen Receptor for the Treatment of Castration-Resistant Prostate Cancer” (ACS Med Chem Lett, 2016).
# Target: T1, Androgen receptor (Homo sapiens, UniProt P10275)
# T1 sequence (P10275 whole entry): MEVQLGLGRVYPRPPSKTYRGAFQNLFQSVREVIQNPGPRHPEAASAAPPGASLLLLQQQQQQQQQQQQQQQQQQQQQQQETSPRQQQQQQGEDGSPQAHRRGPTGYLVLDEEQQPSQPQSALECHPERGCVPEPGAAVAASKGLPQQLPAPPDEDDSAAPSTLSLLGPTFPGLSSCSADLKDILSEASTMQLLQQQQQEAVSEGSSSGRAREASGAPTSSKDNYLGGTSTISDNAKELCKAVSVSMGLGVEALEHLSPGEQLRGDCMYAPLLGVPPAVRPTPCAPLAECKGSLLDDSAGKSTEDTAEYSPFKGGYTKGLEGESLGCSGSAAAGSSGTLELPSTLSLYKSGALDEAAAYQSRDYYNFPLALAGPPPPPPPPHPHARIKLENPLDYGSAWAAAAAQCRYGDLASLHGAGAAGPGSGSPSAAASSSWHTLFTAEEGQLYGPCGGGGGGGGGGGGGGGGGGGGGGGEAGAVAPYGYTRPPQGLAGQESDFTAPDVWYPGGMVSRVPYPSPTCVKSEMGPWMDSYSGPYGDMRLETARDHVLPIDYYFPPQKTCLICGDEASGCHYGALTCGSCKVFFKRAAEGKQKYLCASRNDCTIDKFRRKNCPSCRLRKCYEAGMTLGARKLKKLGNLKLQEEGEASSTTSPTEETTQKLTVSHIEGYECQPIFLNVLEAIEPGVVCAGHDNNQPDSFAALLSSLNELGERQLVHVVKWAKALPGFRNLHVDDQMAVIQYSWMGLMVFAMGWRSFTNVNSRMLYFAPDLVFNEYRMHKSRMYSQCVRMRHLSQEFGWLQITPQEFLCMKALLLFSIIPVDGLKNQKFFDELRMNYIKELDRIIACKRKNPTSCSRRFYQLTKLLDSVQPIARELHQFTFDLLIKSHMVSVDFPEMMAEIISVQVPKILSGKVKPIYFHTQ
# Assay: Antagonist activity at androgen receptor in human C4-2-PSA-rl cells incubated for 24 hrs in presence of androgen R1881 by dual-glo luciferase reporter gene assay
# Format: cell-based
row,Compound,EC50
1,Cc1noc(C)c1CSCC(=O)N1CCN(c2ccccc2)CC1,> 25 µM
2,Cc1ccccc1N1CCN(C(=O)CN(C)Cc2ccccc2)CC1,> 25 µM
3,Cc1ccccc1N1CCN(C(=O)C[S+]([O-])Cc2c(C)noc2C)CC1 (stereo not given),> 25 µM
4,Cc1ccccc1N1CCN(C(=O)CSc2ccccc2)CC1,> 25 µM
5,Cc1ccc(N2CCN(C(=O)CSCc3c(C)noc3C)CC2)cc1,> 25 µM
6,Cc1ccccc1N1CCN(C(=O)COCc2c(C)noc2C)CC1,> 25 µM
7,Cc1cccc(N2CCN(C(=O)CSCc3c(C)noc3C)CC2)c1,> 25 µM
8,COc1ccccc1N1CCN(C(=O)CSCc2c(C)noc2C)CC1,> 25 µM
9,Cc1ccccc1N1CCN(C(=O)/C=C/c2ccccc2)CC1,> 25 µM
10,Cc1ccccc1N1CCN(C(=O)NCSCc2c(C)noc2C)CC1,> 25 µM
11,Cc1ccccc1N1CCC(OC(=O)NCSCc2c(C)noc2C)CC1,> 25 µM
12,Cc1ccc(Cl)cc1N1CCN(C(=O)[C@H]2C[C@H]2c2ccc(F)cc2)CC1,1.7 µM
13,Cc1ccc(Cl)cc1N1CCN(C(=O)[C@@H]2C[C@@H]2c2ccc(F)cc2)CC1,15.2 µM
14,Cc1ccc(Cl)cc1N1CCN(C(=O)C2CC2c2ccc(F)cc2)CC1 (racemic),2.7 µM
15,Cc1ccccc1N1CCN(C(=O)[C@H]2C[C@@H]2c2ccccc2)CC1 (relative stereo),> 25 µM
